# Test results as given in article PMC10746112, “Synthesis and Pro-Apoptotic Effects of Nitrovinylanthracenes and Related Compounds in Chronic Lymphocytic Leukaemia (CLL) and Burkitt’s Lymphoma (BL)” (Molecules, 2023).
# Read-outs that look alike come from different tables or passages of the source.
# Tests used:
# [1] = tested on: PGA-1 CLL cell line; experiment: alamarBlue cell viability assay; details: 24 h; for viability at 10 µM: read-out: % Viability PGA-1, 10 µM, 24 h
# [2] = tested on: MUTU-I Burkitt’s lymphoma cell line; experiment: alamarBlue cell viability assay; details: MUTU-I, 24 h; for viability at 1 µM: read-out: % Viable Cells Remaining MUTU-1, 1 µM, 24 h; for viability at 10 µM: read-out: % Viable Cells Remaining MUTU-1, 10 µM, 24 h
# [3] = tested on: HG-3 CLL cell line; experiment: alamarBlue cell viability assay; details: for viability at 1 µM / viability at 10 µM / IC50: CLL cell, 24 h; for viability at 1 µM: read-out: % Viability HG-3, 1 µM, 24 h; for viability at 10 µM: read-out: % Viability HG-3, 10 µM, 24 h; for IC50: read-out: HG-3 IC50, 24 h; for fold greater response (IC50) in HG-3 compared to PGA-1 cells: ratio of IC50 values
# [4] = tested on: DG-75 Burkitt’s lymphoma cell line; experiment: alamarBlue cell viability assay; details: Homo sapiens, DG-75, 48 h; for viability at 1 µM: read-out: % Viable Cells Remaining DG-75, 1 µM, 48 h; for viability at 10 µM: read-out: % Viable Cells Remaining DG-75, 10 µM, 48 h
# [5] = tested on: HG-3 CLL cells; experiment: Annexin V/PI apoptotic assay (FACS); assay type: cell-based; details: 48 h
# Procedure: (§1) The pro-apoptotic effects of the selected nitrovinylanthracene compounds 19a, 19g, 19i, 19l and 19m after 48 h were next determined using FITC (fluorescein isothiocyanate), Annexin V/PI (propidium iodide) staining and FACS (fluorescence-activated cell sorting) analysis to characterize the mode of cellular death induced. […] The CLL cells PGA1 and HG3 (1 × 10^6 cells/mL) were treated at 37 °C with either vehicle (1% (v/v) DMSO) or the nitrostyrene compounds 19a (10 μM, 5 μM and 1 μM) and 19g, 19i, 19l and 19m (10 μM and 1 μM) for 48 h. The cells were then harvested by centrifugation at 400× g in a temperature-controlled Sorvall centrifuge and rinsed with 0.5 mL of Ca^2+ Annexin-V-binding buffer (0.1 M HEPES, pH 7.4; 0.14 M NaCl; 25 mM CaCl2). The samples were resuspended in 50 µL FITC Annexin V (diluted 1:33 in Ca^2+ Annexin V-binding buffer), incubated on ice for 10 min (protected from light), washed with Annexin-V-binding buffer and re-suspended in 500 µL of propidium iodide (PI) solution (0.5 µg/mL). The samples were analysed within 1 h using a BD Accuri C6 flow cytometer counting 10,000 cells and analysed using the FlowJo software (FlowJo LLC, Ashland, OR, USA) package.
# [6] = tested on: PGA-1 CLL cells; experiment: Annexin V/PI apoptotic assay (FACS); assay type: cell-based; details: PGA-1, 10 μM, 48 h
# Procedure: as §1
# [7] = tested on: MDA-MB-231 human breast cancer cells; experiment: alamarBlue cell viability assay; assay type: cell-based; details: eight concentrations 0.001–50 μM
# [8] = tested on: MCF-7 human breast cancer cells; experiment: alamarBlue cell viability assay; details: for IC50: MCF7, read-out: MCF-7 IC50
# [9] = physchem; assay type: physicochemical; details: buffer
# Procedure: A preliminary HPLC stability study was performed on a representative nitrovinylanthracene compound 19m (isopropyl) in various biologically relevant pH systems (acidic pH 4 found in the stomach, basic pH 9 found in the intestine and pH 7.4 in the plasma). […] Based on the results of this stability study, the compound 19m was determined to be suitable for further preclinical investigation.
# [10] = tested on: DG-75 Burkitt’s lymphoma cell line; details: human, 48 h, 1 µM
# [11] = tested on: Bjab BL cell line; experiment: alamarBlue cell viability assay; assay type: cell-based; details: Homo sapiens, 24 h
# Procedure: (§2) Cells were seeded at a density of 2.5 × 10^4 cells/well (MCF-7, MDA-MB-231 cells), 1 × 10^4 cells/well (HL-60 cells), 1–5 × 10^4 cells per well (BL MUTU-I, DG-75 cells) and 2 × 10^5 cells/well [HG-3, PGA-1 (CLL cells)], Ramos, BJAB (BL cells) (200 μL per well), in 96-well plates. Cells were treated with the desired drug concentration for the appropriate time for each cell type, and the samples were incubated as required. alamarBlue (20 μL) was then added to each well and the samples further incubated in the dark at 37 °C for 4 h. Wells containing only reagent and cell culture medium in the absence of cells were used as blank controls. Ethanol was used as a vehicle, and cells were treated with 1% ethanol (v/v) in all experiments. The 96-well plates were analysed on a fluorescence plate reader (SpectraMax Gemini, Molecular Devices) (emission and excitement wavelengths of 590 nm and 544 nm, respectively), and the fluorescence was recorded. The decrease in cell viability was then calculated with reference to the vehicle samples (100% viability). EMEM medium with the addition of alamarBlue was used as a blank. Vehicle-treated cells were considered to be 100% viable, and the viabilities of each compound was calculated accordingly. […] All biochemical assays were performed in triplicate on at least three independent occasions, and the mean values were determined.
# [12] = tested on: Ramos BL cell line; experiment: alamarBlue cell viability assay; assay type: cell-based; details: Homo sapiens, 24 h
# Procedure: as §2
# [13] = tested on: HeLa cervical cancer cells; experiment: alamarBlue cell viability assay; details: Homo sapiens, 24 h
# [14] = tested on: DG-75 BL cells; experiment: Annexin V/PI apoptotic assay (FACS); assay type: cell-based; details: 48 h
# Procedure: (§3) The chemotherapeutic drug taxol was used as a positive control. The pro-apoptotic effects of the selected nitrostyrene compounds 11g, 11h, 11i, 11j, 11k and 11l (10 μM) were determined using FITC (fluorescein isothiocyanate), Annexin V/PI (propidium iodide) staining and FACS (fluorescence-activated cell sorting) analysis to characterise the mode of cellular death induced by the synthesised compounds. Four populations were produced in this assay: Annexin-V- and PI-negative (Q4, healthy cells), Annexin-V-positive and PI-negative (Q3, early apoptosis), Annexin-V- and PI-positive (Q2, late apoptosis) and Annexin-V-negative and PI-positive (Q1, necrosis), which were easily identified and quantified. Apoptosis was assessed as % total apoptosis by a combination of early and late apoptosis (Q3 and Q2, respectively). […] The identification of compounds that can induce apoptosis in cancer cells is required in the development of potential lead structures for anticancer drugs.
# (§4) The BL cells DG-75 and MUTU-I (750,000) were treated at 37 °C with either vehicle (0.1% (v/v) EtOH), […] taxol (10 μM) and incubated for 24 h (MUTU-1) or 48 h (DG-75). The CLL cells PGA1 and HG3 (1 × 10^6 cells/mL) were treated at 37 °C with either vehicle (1% (v/v) DMSO) or the nitrostyrene compounds 19a (10 μM, 5 μM and 1 μM) and 19g, 19i, 19l and 19m (10 μM and 1 μM) for 48 h. The cells were then harvested by centrifugation at 400× g in a temperature-controlled Sorvall centrifuge and rinsed with 0.5 mL of Ca^2+ Annexin-V-binding buffer (0.1 M HEPES, pH 7.4; 0.14 M NaCl; 25 mM CaCl2). The samples were resuspended in 50 µL FITC Annexin V (diluted 1:33 in Ca^2+ Annexin V-binding buffer), incubated on ice for 10 min (protected from light), washed with Annexin-V-binding buffer and re-suspended in 500 µL of propidium iodide (PI) solution (0.5 µg/mL). The samples were analysed within 1 h using a BD Accuri C6 flow cytometer counting 10,000 cells and analysed using the FlowJo software (FlowJo LLC, Ashland, OR, USA) package.
# [15] = tested on: MUTU-I BL cells; experiment: Annexin V/PI apoptotic assay (FACS); assay type: cell-based; details: 24 h
# Procedure: as §3, §4
# [16] = tested on: MUTU-1 cells; design: method as in earlier work; details: nitrostyrenes and taxol, MTT assay, reported data; cited from earlier work
# [17] = tested on: HL-60 promyelocytic leukaemia cells; experiment: alamarBlue cell viability assay; details: Homo sapiens, HL-60, 24 h
# [18] = tested on: DG-75 Burkitt’s lymphoma cell line; details: cited from earlier work
# [19] = tested on: MUTU-I Burkitt’s lymphoma cell line; details: read-out: IC50 MUTU-I; previous work; cited from earlier work
# [20] = tested on: DG-75 cells; design: method as in earlier work; details: nitrostyrenes and taxol, MTT assay, reported data; cited from earlier work
# [21] = CLL cell, read-out: PGA-1 IC50, 24 h
# [22] = 10 µM, total (early + late) apoptosis
structure (smiles),measurement,setting,value
"CCc1c2ccccc2c(/C=C/[N+](=O)[O-])c2ccccc12 [Compound 19l, (E)-9-Ethyl-10-(2-Nitrovinyl)Anthracene]",viability at 10 µM,[1]; CLL cell,2.7%
same,IC50,[1]; [21],1.3 µM
same,viability at 1 µM,[2],72.7%
same,viability at 10 µM,[2],0.5%
same,viability at 1 µM,[3],78%
same,viability at 10 µM,[3],0.5%
same,IC50,[3],5.4 µM
same,viability at 1 µM,[4],104%
same,viability at 10 µM,[4],4.04%
same,total apoptosis,"[5]; HG-3, 10 μM",74%
same,total apoptosis,[6],82%
"Cc1c2ccccc2c(/C=C/[N+](=O)[O-])c2ccccc12 [Compound 19i, (E)-9-Methyl-10-(2-Nitrovinyl)Anthracene]",viability at 10 µM,[1]; CLL cell,2.9%
same,IC50,[1]; [21],4.4 µM
same,viability at 1 µM,[2],94.5%
same,viability at 10 µM,[2],1.95%
same,viability at 10 µM,[3],0.5 to 8.3%
same,IC50,[3],3.85 µM
same,viability at 1 µM,[4],96.7%
same,viability at 10 µM,[4],19.5%
same,total apoptosis,"[5]; HG-3, 10 μM",70%
same,total apoptosis,[6],80%
same,IC50,[7],3.26 µM
same,IC50,[8],2.11 µM
COc1c2ccccc2c(/C=C/[N+](=O)[O-])c2ccccc12 [Compound 19g],viability at 1 µM,"[1]; CLL cell, read-out: % Viability PGA-1, 1 µM, 24 h",43%
same,viability at 10 µM,[1]; CLL cell,1.21%
same,IC50,[1]; [21],1.3 µM
same,IC50,[1]; read-out: PGA-1 IC50,1.29 µM
same,viability at 1 µM,[2],90.1%
same,viability at 10 µM,[2],1.85%
same,viability at 10 µM,[3],0.5 to 8.3%
same,IC50,[3],0.17 µM
same,fold greater response (IC50) in HG-3 compared to PGA-1 cells,[3],7.8 fold
same,viability at 1 µM,[4],89.2%
same,viability at 10 µM,[4],13.8%
same,total apoptosis,"[5]; HG-3, 1 μM",11%
same,total apoptosis,"[5]; HG-3, 10 μM",54%
same,total apoptosis,[6],52%
same,IC50,[7],3.78 µM
same,IC50,[8],5.31 µM
"CC(C)c1c2ccccc2c(/C=C/[N+](=O)[O-])c2ccccc12 [Compound 19m, (E)-9-Isopropyl-10-(2-Nitrovinyl)Anthracene]",viability at 10 µM,[1]; CLL cell,2.9%
same,IC50,[1]; [21],9.1 µM
same,viability at 1 µM,[2],78.4%
same,viability at 10 µM,[2],0.21%
same,viability at 1 µM,[3],82%
same,viability at 10 µM,[3],0.9%
same,IC50,[3],0.7 µM
same,fold greater response (IC50) in HG-3 compared to PGA-1 cells,[3],13 fold
same,viability at 1 µM,[4],85.2%
same,viability at 10 µM,[4],28.1%
same,total apoptosis,"[5]; HG-3, 1 μM",25%
same,total apoptosis,"[5]; HG-3, 10 μM",69%
same,total apoptosis,[6],74%
same,half-life,[9]; pH 4,> 24 h
same,remaining at 24 h,[9]; pH 4,55%
same,half-life,[9]; pH 7.4,> 24 h
same,remaining at 24 h,[9]; pH 7.4,56%
same,half-life,[9]; pH 9,19 h
same,remaining at 24 h,[9]; pH 9,42%
"CC(=O)O[C@H]1C(=O)[C@@]2(C)[C@H]([C@H](OC(=O)c3ccccc3)[C@]3(O)C[C@H](OC(=O)[C@H](O)[C@@H](NC(=O)c4ccccc4)c4ccccc4)C(C)=C1C3(C)C)[C@]1(OC(C)=O)CO[C@@H]1C[C@@H]2O [Taxol, taxol, reference compound]",% Viable Cells Remaining DG-75,[10],90.0%
same,viability at 1 µM,[2],32%
same,viability at 10 µM,[2],7%
same,viability at 1 µM,[11]; read-out: % Viable Cells Remaining Bjab 24 h 1 µM,97.6%
same,viability at 10 µM,[11]; read-out: % Viable Cells Remaining Bjab 24 h 10 µM,80.2%
same,viability at 1 µM,[12]; read-out: % Viable Cells Remaining Ramos 24 h 1 µM,69.3%
same,viability at 10 µM,[12]; read-out: % Viable Cells Remaining Ramos 24 h 10 µM,24.9%
same,viability at 1 µM,[13]; read-out: % Viable Cells Remaining HeLa 24 h 1 µM,86.9%
same,viability at 10 µM,[13]; read-out: % Viable Cells Remaining HeLa 24 h 10 µM,48.4%
same,viability at 1 µM,[4],> 90%
same,viability at 10 µM,[4],40%
same,DG-75 Apoptosis (%),[14]; 1 µM,20.7%
same,DG-75 Apoptosis (%),[14]; [22],72.8%
same,MUTU-I Apoptosis (%),[15]; 1 µM,62.8%
same,MUTU-I Apoptosis (%),[15]; [22],87.3%
same,MUTU-I Apoptosis (%),"[15]; 10 µM, total (early + late) apoptosis, listed as taxol",87%
same,IC50,[16],0.3 µM
same,viability at 1 µM,[17]; read-out: % Viable Cells Remaining HL60 24 h 1 µM,97.6%
same,viability at 10 µM,[17]; read-out: % Viable Cells Remaining HL60 24 h 10 µM,69.7%
same,% Viable Cells Remaining DG-75 48 h 1 µM,[18],>90%
same,IC50,"[18]; read-out: IC50 DG-75, previous work",1.32 µM
same,IC50,[19],0.32 µM
same,IC50,[20],1.32 µM
same,viability at 1 µM,"[8]; MCF7, 72 h, read-out: % Viable Cells Remaining MCF-7 72 h 1 µM",101%
same,viability at 10 µM,"[8]; MCF7, 72 h, read-out: % Viable Cells Remaining MCF-7 72 h 10 µM",75%
